Target: T1, KDM4B (Homo sapiens, UniProt O94953)
T1 sequence (O94953 1-1096): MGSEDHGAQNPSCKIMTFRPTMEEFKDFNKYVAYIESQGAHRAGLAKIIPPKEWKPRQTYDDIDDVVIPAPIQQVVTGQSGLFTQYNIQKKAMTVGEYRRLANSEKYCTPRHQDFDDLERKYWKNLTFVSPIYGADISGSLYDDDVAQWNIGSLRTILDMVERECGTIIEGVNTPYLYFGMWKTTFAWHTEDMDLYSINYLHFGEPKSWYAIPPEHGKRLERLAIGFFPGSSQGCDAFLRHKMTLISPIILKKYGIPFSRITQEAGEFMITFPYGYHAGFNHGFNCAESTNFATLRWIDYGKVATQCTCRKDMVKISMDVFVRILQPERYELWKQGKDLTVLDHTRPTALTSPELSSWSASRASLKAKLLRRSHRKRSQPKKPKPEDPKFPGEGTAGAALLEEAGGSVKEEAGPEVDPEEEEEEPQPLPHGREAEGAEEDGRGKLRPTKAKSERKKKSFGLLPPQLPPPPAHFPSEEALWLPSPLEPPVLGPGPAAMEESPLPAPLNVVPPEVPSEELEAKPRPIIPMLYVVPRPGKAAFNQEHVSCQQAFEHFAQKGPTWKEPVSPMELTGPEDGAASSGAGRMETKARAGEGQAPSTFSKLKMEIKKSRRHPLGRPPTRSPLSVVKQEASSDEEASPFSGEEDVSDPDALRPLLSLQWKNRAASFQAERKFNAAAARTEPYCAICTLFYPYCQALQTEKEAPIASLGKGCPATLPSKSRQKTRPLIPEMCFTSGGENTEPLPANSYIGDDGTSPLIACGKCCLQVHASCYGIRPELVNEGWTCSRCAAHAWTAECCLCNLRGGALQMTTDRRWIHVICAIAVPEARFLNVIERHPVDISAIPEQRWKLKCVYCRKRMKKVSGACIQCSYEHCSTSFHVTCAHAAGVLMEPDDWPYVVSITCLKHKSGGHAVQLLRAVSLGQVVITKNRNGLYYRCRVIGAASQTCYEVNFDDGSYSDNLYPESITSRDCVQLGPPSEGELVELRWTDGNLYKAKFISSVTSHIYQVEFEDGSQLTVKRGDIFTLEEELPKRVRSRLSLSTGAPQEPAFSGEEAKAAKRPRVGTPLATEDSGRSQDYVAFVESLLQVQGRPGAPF
Assay: Covalent binding by MS, KDM4B
Conditions: same conditions as with KDM5B
Method: Covalent binding of the inhibitors with KDM5B was confirmed through MS‐labelling experiments (Figure 3). […] The specific covalent binding to KDM5B explains the improved selectivity over KDM5C and KDM4B compared to non‐covalent inhibitor 2.
Covalent binding RapidFire
Recombinant KDM5B (MW = 55152 Da) was incubated at 1 μM with the appropriate compound at 10 μM for 2 hours at 37 °C in 50 mM MES buffer at pH 7.0. Samples were injected in RapidFire 365 and MS was detected in QTOF mass spectrometer. Data were acquire and analysed with Agilent Mass Hunter software.
Recombinant KDM5B was incubated at 1 μM with the appropriate compound at 10 μM for 2 hours at 37 °C in 200 µL of 50 mM MES buffer at pH 7.0. […]
Digestion with elastase (1 µL) overnight at 37 °C followed by purification with SEP-PAK C18 columns and resuspension of the final sample in 98% MilliQ-H20 2% CH3CN 0.1% TFA gave the final sample ready to inject. […]
NanoBRET™ Nano-Glo® substrate (Promega UK) and Extracellular NanoLuc Inhibitor (Promega UK) were added at final concentrations of 10 and 20 µM, respectively. Readings were performed within 5 minutes using a PHERAstar FSX (BMG Labtech) with 450 and 610 nm filters. Corrected BRET ratios were calculated and is defined as the ratio if the emission at 610/450 nm for experimental samples (i.e. those treated with tracer) minus the emission at 610/450 nm for control samples (DMSO controls). […]

covalent binding to KDM4B by MS: no covalent binding
Structure (SMILES): CN(C)C/C=C/C(=O)Nc1cccc(CN(C)CCc2cnn(-c3nccc4c(=O)[nH]cnc34)c2)c1 [Compound 6]
